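The compound was tested at five concentrations on cells cultured in 96-well plates, with a 48-hour exposure period. At the GI50, growth is halved. TGI is the concentration that stops growth completely.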
System: SK-OV-3 ovarian
Test: growth of human tumour cells (NCI), 48 h

Compound	GI50 [µM]	TGI [µM]
COc1cc(NCc2ccc3nc(N)nc(N)c3c2C)cc(OC)c1OC (tested in a mixture with another compound)	0.0189	–
O=C(c1ccccc1)c1cc2ccccc2o1	> 100	> 100
O=C(Nc1ccncc1)C(=O)c1cn(S(=O)(=O)c2ccc(F)cc2)c2ccccc12	22.3	85.9
C=C(C)[C@@H]1CC[C@]2(C)[C@H](CC=C3[C@@H]4CC(C)(C)CC[C@]4(C(N)=O)CC[C@]32C)[C@@]1(C)CCC#N	4.62	> 100
O=C(c1ccccc1Br)C(F)(F)F	–	> 100
CO/N=C(\COc1ccc2c(c1)oc(=O)c1cc(OC)ccc12)c1ccc(OC)cc1	> 100	> 100
COc1ccc(NC(=O)/C(Cc2cc(=O)oc3cc(O)ccc23)=N\NC(C)(C)C)c(OC)c1	–	> 100
CCOc1ccc(NC(=O)C(=O)CC(=O)c2c(C)n([O-])c3ccccc3[n+]2=O)cc1	–	> 100
Clc1ccc2[nH]cc(-c3nnnn3-c3ccccc3)c2c1	> 44.3	> 75.3
CCCC(=O)Nc1cc2c3c(c1)CCCN3CCC2	–	> 10
Cc1cc(Cl)ccc1NC(=O)C(=O)Cc1nc2ccccc2o1	–	> 100
OCC1OC(c2nc(C3=NCCCN3)cs2)C(O)C1O (centres undefined)	–	> 100
COc1cc(-c2cc(-c3cc4c([nH]c5ccccc54)c(-c4cc(OC)c(OC)c(OC)c4)n3)cc(-c3ccccc3)n2)cc(OC)c1OC	5	51.9
O=C1C=CC(=O)c2cc3cc(CBr)ccc3cc21	19.1	> 57.6
CCC(C)COC(=O)c1ccc(N=Cc2ccc(C=Nc3ccc(C(=O)OCC(C)CC)cc3)cc2)cc1 (centres undefined)	–	> 100
Cc1cc(N(CCC#N)CCC#N)ccc1N=Nc1ccc(C(=O)O)cc1	–	> 100
CN(C)CC1CCCC/C1=N/OC(=O)c1ccc(Cl)cc1 (centres undefined)	–	> 100

Compound	GI50 [µM]	TGI [µM]
N#CC(C(=O)C(=O)C(C#N)c1ccc(Br)cc1)c1ccc(Br)cc1 (centres undefined)	–	33.1
COc1cccc(C2=NC(C(C)C)CO2)c1 (centres undefined)	–	> 100
CCOC(=O)Nc1ccc(-c2nc(-c3cccc(OCCN4CCOCC4)c3)c(-c3ccnc(Br)c3)[nH]2)cc1	2.66	6.25
CCCN1C(=O)N(CCC)C2C1NC(=S)N2/N=C/C=C/c1ccccc1OC (centres undefined)	0.518	> 100
O=C(CCc1n[nH]c(=S)o1)Nc1ccccc1C(F)(F)F	–	> 100
COc1cc2c(cc1OCCCNC(=O)c1cccc3c(=O)c4ccccc4[nH]c13)N=C[C@@H]1CCCN1C2=O	5.58	> 100
Cc1ccc(NC(=O)CCc2cc(C(C)(C)C)nc(=S)[nH]2)cc1C	–	> 100
Cc1[nH]c2ccccc2c1C(=O)/C=C/c1ccccc1O	–	> 100
O=C(Nc1nc(=S)c2c(ncn2CCOC(=O)c2ccccc2)[nH]1)c1ccccc1	–	> 100
COc1ccc(CC2NCCc3c2[nH]c2ccccc32)cc1 (centres undefined)	–	> 100
CCOc1ccc(NC(=O)CC#N)cc1	–	> 100
O=C(/C=C/c1cccc2ccccc12)c1ccccc1Cl	–	43.1
COc1ccc2c(c1)C(=O)c1c-2c(N2CCN(C(=O)CNCCNCCO)CC2)nc2ccccc12	13.7	28.2
Cc1ccc(/C=C/C(=O)c2sc(-c3nc(C)c(C(=O)/C=C/c4ccc(C)cc4)s3)nc2C)cc1	–	> 100
CCC[CH2][Sn]([Cl])([CH2]CCC)[CH2]CCC	0.181	0.56
O=c1ccn([C@H]2CSC[C@@H](CO)C2)c(=O)[nH]1	–	> 100
C1CN2CCN3CCN4CCN1[P+]243	–	> 100

System: UACC-62 melanoma
Test: growth of human tumour cells (NCI), 48 h

Compound	GI50 [µM]	TGI [µM]
CN(C)CC[PH+](c1ccccc1)c1ccccc1.CN(C)CC[PH+](c1ccccc1)c1ccccc1.[Cl-].[Pd+2]	> 100	> 100
O=C(c1ccccc1)c1cc2ccccc2o1	> 100	> 100
O=C(Nc1ccncc1)C(=O)c1cn(S(=O)(=O)c2ccc(F)cc2)c2ccccc12	3.4	> 100
C=C(C)[C@@H]1CC[C@]2(C)[C@H](CC=C3[C@@H]4CC(C)(C)CC[C@]4(C(N)=O)CC[C@]32C)[C@@]1(C)CCC#N	2.59	9.15
